Values after ≈ are worked out from the molar mass of the structure shown. Where two headings read alike, the source gives them in different places.
Experiments:
Format in all cases: cell-based
[1] = test system: Proteus mirabilis CMY-DHA; test: Synergistic activity: MIC in the presence of Avibactam; conditions: row r36, in the presence of Avibactam @ 4 μg/mL
Protocol: (§1) Isolates were sub-cultured onto appropriate media and stocked in skim milk at −80° C. Following two subcultures from frozen stock, in vitro antimicrobial susceptibility testing was performed using the Clinical and Laboratory Standards Institute (CLSI) broth microdilution method. Briefly, fresh cultures were suspended in culture media to give a final stock inoculum size of 5×10^7 colony forming units per milliliter of broth (CFU/mL). Test compounds were prepared at a stock solution concentration equal to 128 μg/mL, then diluted to give a final an initial working concentration of 32 μg/mL. 100 μL of the stock solutions were added to the first wells in a 96-well plate and were then diluted using a 2-fold dilution method to give a range of 32-0.025 μg/mL. 100 μL of the bacterial suspensions were then added to the 96-well plates to give a final working inoculum size of 5×10^5 CFU/mL. The final compound concentration range was 16-0.0125 μg/mL. […] MICs for comparator agents were determined using custom-designed, in-house prepared 96-well broth microdilution panels.
(§2) The same method used to test the activity of the claimed compounds was used to determine their synergistic activity when combined with a β-lactamase inhibitor except that either a fixed concentration or fixed ratio of a β-lactamase inhibitor was added to the 96-well plates prior to adding the bacteria cultures. Synergistic activity was defined as the reduction of MIC of a given compound when tested using the β-lactamase inhibitor versus testing the compound in the absence of a β-lactamase inhibitor.

Escherichia coli CMY-DHA = test: as above
Protocol: as §1, §2

[2] = test system: Escherichia coli Elevated AmpC; test: as above
Protocol: as §1, §2

[3] = test system: Klebsiella pneumoniae CMY-DHA; test: as above; conditions: row r32, in the presence of Avibactam @ 4 μg/mL
Protocol: as §1, §2

[4] = test system: Citrobacter freundii species complex Elevated AmpC; test: as above; conditions: row r16, in the presence of Avibactam @ 4 μg/mL
Protocol: as §1, §2

[5] = test system: Enterobacter cloacae species complex Elevated AmpC; test: as above
Protocol: as §1, §2

[6] = test system: Klebsiella pneumoniae OXA-163, OXA-1_OXA-30, SHV-1, TEM-1; test: MIC, CLSI broth microdilution
In short: (§3)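 The read-out is the minimum inhibitory concentration determined by CLSI broth microdilution. Final compound levels ran from 16 to 0.0125 μg/mL in two-fold steps against about 5×10^5 CFU/mL of genotypically characterized bacteria.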

[7] = test system: Klebsiella pneumoniae SHV-12; test: MIC, CLSI broth microdilution
In short: (§4)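 CLSI broth microdilution; 2-fold compound series, final 16-0.0125 μg/mL; final inoculum 5×10^5 CFU/mL. Strains genotyped for resistance markers, passaged twice from frozen stock before testing.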

[8] = test system: Escherichia coli ATCC 25922; test: MIC, CLSI broth microdilution; conditions: ATCC25922
In short: as §4

[9] = test system: Pseudomonas aeruginosa OprD negative; test: MIC, CLSI broth microdilution
In short: as §3

[10] = test system: Citrobacter freundii species complex OXA-181; test: MIC, CLSI broth microdilution; conditions: Citrobacter freundii species complex, OXA-181; read-out: MIC
In short: as §4

[11] = test system: Pseudomonas aeruginosa AmpC overexpressed; test: MIC, CLSI broth microdilution
In short: as §3

Escherichia coli CMY-2 = test: MIC, CLSI broth microdilution; conditions: CMY2
In short: as §4

[12] = test system: Pseudomonas aeruginosa ATCC 27853; test: MIC, CLSI broth microdilution; conditions: ATCC27853
In short: as §4

[13] = test system: Klebsiella aerogenes VIM-1, SHV-12; test: MIC, CLSI broth microdilution
In short: as §4

[14] = test system: Klebsiella pneumoniae OXA-48, SHV-1; test: MIC, CLSI broth microdilution
In short: as §3

[15] = test system: Klebsiella pneumoniae KPC-3; test: MIC, CLSI broth microdilution
In short: as §4

[16] = test system: Enterobacter cloacae species complex NDM-1; test: MIC, CLSI broth microdilution
In short: as §4

Escherichia coli SHV-12 = test: MIC, CLSI broth microdilution; conditions: SHV12
In short: as §4

[17] = test system: Klebsiella pneumoniae KPC-2; test: MIC, CLSI broth microdilution; conditions: KPC2
In short: as §4

[18] = test system: Klebsiella oxytoca KPC-2, TEM-1; test: MIC, CLSI broth microdilution
In short: as §4

[19] = test system: Escherichia coli Elevated AmpC; test: MIC against Elevated AmpC producing strains, compound alone
Protocol: (§5) Gram-negative and Gram-positive bacterial strains used during the in vitro minimum inhibitory concentration (MIC) determination were obtained either from the American Type Culture Collection (ATCC) or from clinical specimens. All strains were characterized genotypically and the respective antibiotic resistance markers for each strain were identified.
as §1

[20] = test system: Citrobacter freundii species complex Elevated AmpC; test: as above; conditions: row r16
Protocol: as §5, §1

[21] = test system: Enterobacter cloacae species complex Elevated AmpC; test: as above
Protocol: as §5, §1

[22] = strain of row r26, in the presence of Avibactam @ 4 μg/mL
[23] = strain of row r27, in the presence of Avibactam @ 4 μg/mL
[24] = strain of row r28, in the presence of Avibactam @ 4 μg/mL
[25] = strain of row r29, in the presence of Avibactam @ 4 μg/mL
[26] = strain of row r30, in the presence of Avibactam @ 4 μg/mL
[27] = strain of row r31, in the presence of Avibactam @ 4 μg/mL
[28] = strain of row r34, in the presence of Avibactam @ 4 μg/mL
[29] = strain of row r35, in the presence of Avibactam @ 4 μg/mL
[30] = strain of row r10, in the presence of Avibactam @ 4 μg/mL
[31] = strain of row r11, in the presence of Avibactam @ 4 μg/mL
[32] = strain of row r12, in the presence of Avibactam @ 4 μg/mL
[33] = strain of row r13, in the presence of Avibactam @ 4 μg/mL
[34] = strain of row r14, in the presence of Avibactam @ 4 μg/mL
[35] = strain of row r15, in the presence of Avibactam @ 4 μg/mL
[36] = in the presence of Avibactam @ 4 μg/mL
[37] = strain of row r7, in the presence of Avibactam @ 4 μg/mL
[38] = strain of row r20, in the presence of Avibactam @ 4 μg/mL

For CC(C)(O/N=C(\C(=O)N[C@@H]1C(=O)N2C(C(=O)[O-])=C(C[n+]3ccccc3)CS[C@H]12)c1csc(N)n1)C(=O)O [Ceftazidime, ceftazidime, reference compound], the MIC [1] was 0.12 mg/L, the MIC (Escherichia coli CMY-DHA; [22]) was 0.5 mg/L and the MIC (Escherichia coli CMY-DHA; [23]) was 0.5 mg/L. For the same molecule, the MIC (Escherichia coli CMY-DHA; [24]) was 0.06 mg/L, the MIC (Escherichia coli CMY-DHA; [25]) was 0.12 mg/L and the MIC (Escherichia coli CMY-DHA; [26]) was “<=0.015 μg/mL”. It also gave an MIC (Escherichia coli CMY-DHA; [27]) of 0.12 mg/L, an MIC (Escherichia coli CMY-DHA; [28]) of 0.5 mg/L and an MIC (Escherichia coli CMY-DHA; [29]) of 0.25 mg/L. The MIC [2, 30] was 0.12 mg/L, the MIC [2, 31] was 0.06 mg/L and the MIC [2, 32] was 0.12 mg/L. The MIC [2, 33] was 0.12 mg/L, the MIC [2, 34] was 0.12 mg/L and the MIC [2, 35] was 0.5 mg/L. It also gave an MIC [3] of 0.12 mg/L, an MIC [4] of 0.25 mg/L and an MIC [5, 36] of 0.25 mg/L. It also gave an MIC [5, 37] of 0.5 mg/L, an MIC [5, 38] of 0.03 mg/L and an MIC [6] greater than 32 mg/L. For the same molecule, the MIC ([7]; SHV12, SHV-12, read-out: MIC) was greater than 32 mg/L, the MIC [8] was 0.25 mg/L (≈ 0.457 µM) and the MIC [9] was 2 mg/L (≈ 3.66 µM). For the same molecule, the MIC [10] was 8 mg/L (≈ 14.6 µM), the MIC [11] was 8 mg/L (≈ 14.6 µM) and the MIC (Escherichia coli CMY-2) was greater than 32 mg/L. For the same molecule, the MIC [12] was 1 mg/L (≈ 1.83 µM), the MIC [13] was greater than 32 mg/L and the MIC [14] was 0.5 mg/L (≈ 0.915 µM). It also gave an MIC ([15]; KPC3, KPC-3, read-out: MIC) greater than 32 mg/L, an MIC [16] greater than 32 mg/L and an MIC (Escherichia coli SHV-12) of 32 mg/L (≈ 58.5 µM). The MIC [17] was greater than 32 mg/L, the MIC ([18]; KPC-2, TEM-1, read-out: MIC) was 1 mg/L (≈ 1.83 µM) and the MIC ([19]; strain of row r10) was 8 mg/L (≈ 14.6 µM). For the same molecule, the MIC ([19]; strain of row r11) was 8 mg/L (≈ 14.6 µM), the MIC ([19]; strain of row r12) was 8 mg/L (≈ 14.6 µM) and the MIC ([19]; strain of row r13) was 4 mg/L (≈ 7.32 µM). For the same molecule, the MIC ([19]; strain of row r14) was 16 mg/L (≈ 29.3 µM), the MIC ([19]; strain of row r15) was 16 mg/L (≈ 29.3 µM) and the MIC [20] was greater than 32 mg/L. For the same molecule, the MIC [21] was 16 mg/L (≈ 29.3 µM), the MIC ([21]; strain of row r7) was greater than 32 mg/L and the MIC ([21]; strain of row r20) was 16 mg/L (≈ 29.3 µM).

In the case of Nc1nc(/C(=N/OC2(C(=O)O)CC2)C(=O)N[C@H]2CON(C3(C(=O)O)C[C@H](N4C(=O)c5cc(O)c(O)cc5C4=O)C(=O)O3)C2=O)cs1 (stereo partly drawn) [Cmpd 1, (4S)-2-[(4S)-4-{[(2Z)-2-(2-amino-1,3-thiazol-4-yl)-2-{[(1-carboxycyclopropyl)oxy]imino}acetyl]amino}-3-oxo-1,2-oxazolidin-2-yl]-4-(5,6-dihydroxy-1,3-dioxo-1,3-dihydro-2H-isoindol-2-yl)-5-oxooxolane-2-carboxylic acid], the MIC [1] is reported as 0.03 mg/L, the MIC (Escherichia coli CMY-DHA; [22]) is reported as 0.03 mg/L and the MIC (Escherichia coli CMY-DHA; [23]) is reported as “<=0.008 μg/mL”. The MIC (Escherichia coli CMY-DHA; [24]) was “<=0.008 μg/mL”, the MIC (Escherichia coli CMY-DHA; [25]) was 0.06 mg/L and the MIC (Escherichia coli CMY-DHA; [26]) was “<=0.008 μg/mL”. The MIC (Escherichia coli CMY-DHA; [27]) was 0.06 mg/L, the MIC (Escherichia coli CMY-DHA; [28]) was “<=0.008 μg/mL” and the MIC (Escherichia coli CMY-DHA; [29]) was “<=0.008 μg/mL”. The MIC [2, 30] was “<=0.008 μg/mL”, the MIC [2, 31] was “<=0.008 μg/mL” and the MIC [2, 32] was 0.015 mg/L. For the same molecule, the MIC [2, 33] was “<=0.008 μg/mL”, the MIC [2, 34] was “<=0.008 μg/mL” and the MIC [2, 35] was 0.06 mg/L. It also gave an MIC [3] of 0.5 mg/L, an MIC [4] of 0.03 mg/L and an MIC [5, 36] of 0.06 mg/L. The MIC [5, 37] was 0.12 mg/L, the MIC [5, 38] was “<=0.008 μg/mL” and the MIC [6] was 0.06 mg/L (≈ 0.0908 µM). It also gave an MIC ([7]; SHV12) of 0.0149 mg/L (≈ 0.0226 µM), an MIC [8] of 0.06 mg/L (≈ 0.0908 µM) and an MIC [9] of 0.12 mg/L (≈ 0.182 µM). It also gave an MIC [10] of 0.03 mg/L (≈ 0.0454 µM), an MIC [11] of 0.5 mg/L (≈ 0.757 µM) and an MIC (Escherichia coli CMY-2) of 1 mg/L (≈ 1.51 µM). For the same molecule, the MIC [12] was 0.12 mg/L (≈ 0.182 µM), the MIC [13] was 0.5 mg/L (≈ 0.757 µM) and the MIC [14] was 0.0149 mg/L (≈ 0.0226 µM). The MIC ([15]; KPC3) was 0.0149 mg/L (≈ 0.0226 µM), the MIC [16] was 0.12 mg/L (≈ 0.182 µM) and the MIC (Escherichia coli SHV-12) was 0.5 mg/L (≈ 0.757 µM). For the same molecule, the MIC [17] was 0.12 mg/L (≈ 0.182 µM), the MIC [18] was 0.0149 mg/L (≈ 0.0226 µM) and the MIC ([19]; strain of row r10) was 0.015 mg/L (≈ 0.0227 µM). The MIC ([19]; strain of row r11) was 0.25 mg/L (≈ 0.378 µM), the MIC ([19]; strain of row r12) was 0.5 mg/L (≈ 0.757 µM) and the MIC ([19]; strain of row r13) was 0.06 mg/L (≈ 0.0908 µM). It also gave an MIC ([19]; strain of row r14) of 0.06 mg/L (≈ 0.0908 µM), an MIC ([19]; strain of row r15) of 0.12 mg/L (≈ 0.182 µM) and an MIC [20] of 0.5 mg/L (≈ 0.757 µM). The MIC [21] was 0.5 mg/L (≈ 0.757 µM), the MIC ([21]; strain of row r7) was 2 mg/L (≈ 3.03 µM) and the MIC ([21]; strain of row r20) was 0.25 mg/L (≈ 0.378 µM).

— US11780832B2, “Lactivicin compounds, their preparation and use as antibacterial agents” (priority 2021, dated 2023)
